Reference: US8637681B2, “Pyrrolyl substituted dihydroindol-2-one derivatives, preparation methods and uses thereof” (Qilu Pharmaceutical Co., Ltd., priority 2010, dated 2014)
Values joined by “and” are separate entries in the source; they are usually repeats but may differ in a detail not shown here. Equal entries are not always repeated.

Columns and labels:
[1] = system: arterial ring angiogenesis in rats; assay: Inhibitory actions on arterial ring angiogenesis in rats; format: cell-based; conditions: Rattus norvegicus, area covered by micrangiums vs control well, read-out: Inhibitory rate (%); for inhibition at 0.2 µg/mL: 0.2 μg/ml; for inhibition at 1 µg/mL: 1 μg/ml; for inhibition at 5 µg/mL: 5 μg/ml
Experimental: This experiment was conducted by referring to the method described by R. F. Nicosia et al (Nicosia, R. F., et al. Am J Pathol., 1997, 151, 1379-1386). Rats were executed by cervical dislocation. The thoracic aorta was carefully separated, and placed in a container with physiological saline. The excess tissues were carefully cut off. The blood vessels were cut with a pair of ophthalmic scissors to form 1 mm thick vascular ring slices. To a pre-cooled 96-well cell culture plate, one separated vascular ring was placed in the center of each well. 70 μl of pre-molten Matrigel was carefully added to cover the vascular ring, which was incubated at 37° C. for 1 h so as to solidify it. […] The sample was placed in incubator for conventional culture, and each compound was tested at least in two repeated wells, and each test was repeated twice. […] The fresh culture medium was replaced every 3 days, and the drug was changed at the same time. The survival status of vascular rings was observed under microscope, and pictures were taken at the same time. Image Pro Plus software was used to calculate the area covered by micrangiums. The average inhibition rate was calculated by using the formula: inhibition rate (%)=(area of control well−area of drug well)/area of control well×100%.

[2] = Cytotoxicity test (SRB), A549; format: cell-based; conditions: human, A549 non-small cell lung cancer cells
Experimental: (§1) Cytotoxicity of the compounds of the present invention was tested with human non-small cell lung cancer cells A549, human cervical cancer Hela cells, human skin cancer cells A431. The test was performed by referring to the method described by Rusnak et al (Rusnak D. W., et al., Cell Prolif., 2007, 40, 580-94).
(§2) In Dulbecco's Modified Eagle Medium (DMEM) comprising 10% fetal bovine serum, 2 mM glutamine and non-essential amino acids, cells were cultured at 37° C. in 5% CO2 cell incubator. Trypsin/ethylenediamine tetraacetic acid (EDTA) were used to harvest cells in cell culture bottle. The cells were added to a 96-well cell culture plate, 4000/well (0.1 ml medium), adhering wall overnight, 0.1 ml of the diluted solution of the compounds to be tested was added, the final concentration of DMSO was 0.25%. The cell culture plate was incubated at 37° C., 5% CO2 conditions for 72 h. The change of cellular morphology was observed under microscope, and then 50 μl of 50% (mass/volume) trichloroacetic acid (TCA) was added to each well to fix cells. The final concentration of TCA was 10%. It stood for 5 min, than was placed in 4° C. refrigerator for 1 h, the wells of the culture plate were washed with deionized water for 5 times to remove TCA, drained, dried in air until no wet trace was observed. 100 μl of 0.4% (mass/volume) SRB was added to each well, stood at room temperature for 10 min. The liquid in each well was discarded, and then the wells were washed with 1% acetic acid for 5 times, dried in air, extracted with 150 μl of 10 mM Tris base (trihydroxymethylaminomethane, pH 10.5). The absorption at a wavelength of 540 nm was measured. The IC50 (μM) of the compound was calculated using Logit method.

[3] = Cytotoxicity test (SRB), Hela; format: cell-based; conditions: human, Hela cervical cancer cells
Experimental: Cytotoxicity of the compounds of the present invention was tested with human non-small cell lung cancer cells A549, human cervical cancer Hela cells, human skin cancer cells A431. The test was performed by referring to the method described by Rusnak et al (Rusnak D. W., et al., Cell Prolif., 2007, 40, 580-94). […] Trypsin/ethylenediamine tetraacetic acid (EDTA) were used to harvest cells in cell culture bottle. The cells were added to a 96-well cell culture plate, 4000/well (0.1 ml medium), adhering wall overnight, 0.1 ml of the diluted solution of the compounds to be tested was added, the final concentration of DMSO was 0.25%. The cell culture plate was incubated at 37° C., 5% CO2 conditions for 72 h. […] The absorption at a wavelength of 540 nm was measured. The IC50 (μM) of the compound was calculated using Logit method.

[4] = Cytotoxicity test (SRB), A431; format: cell-based; conditions: human, A431 skin cancer cells
Experimental: as §1, §2

[5] = system: human colon cancer HT 29 transplanted tumor; assay: Nude mice transplanted tumor test; format: in vivo, female Balb/cA nude mice; set-up: key to d21 Vave ± SD (average tumor volume): tumor volume TV = ½×a×b² (a, b = major, minor diameter), in mm³; conditions: for Dead animal number: dead/total animals; for inhibition in vivo at 80 mg/kg: Mus musculus, HT-29, po, 504 h, (1−T/C)×100%, read-out: Tumor inhibition rate d21 (%); for inhibition in vivo at 80 mg/kg / d21 Wave ± SD (average bodyweight of nude mice) / d21 Vave ± SD (average tumor volume) / d21 RTV ± SD (relative tumor volume): d21; for d0 Wave ± SD (average bodyweight of nude mice): d0, at grouping before administration (baseline); for d21 Vave ± SD (average tumor volume): HT 29 in nude mice; for d21 RTV ± SD (relative tumor volume): RTV=Vt/V0
Experimental: The nude mice transplanted tumor test used female Balb/cA nude mice, and tumor strains were human colon cancer HT 29 strains.
Under sterile condition, eugonic tumor tissues stage were cut into pieces of about 1.5 mm^3, and inoculated at right axillary fossa of the nude mice. The transplanted tumor diameter was measured by vernier caliper, and the animals were randomly grouped after the tumors grew to about 120 mm^3. The positive control group and the compounds group in a dosage of 80 mg/kg were administered intragastrically each day for consecutive 20 days. The negative control group was given equivalent amount of injection water containing 0.1% Tween 80. Tumor diameters and the bodyweight of mice were measured 2-3 times every week. The evaluation indexes observed in the test include relative tumor proliferation rate, bodyweight and general states. The formulation for calculating tumor volume (TV) is: TV=½×a×b^2, wherein a, b represent major diameter and minor diameter of tumor; Relative tumor volume (RTV) was calculated according the results of measurement by the following formula: RTV=Vt/V0, wherein V0 is tumor volume measured when dividing groups for administration, and Vt is tumor volume measured after each administration.

[6] = system: three kinds of tumor cells (A549, Hela, A431); assay: Cytotoxicity test, summary over the three tumor cell lines; format: cell-based, human; conditions: compared with positive control Sunitinib
Experimental: as §1, §2

[7] = 80 mg/kg intragastrically each day for 20 days
[8] = 80 mg/kg intragastrically each day for 20 days, in mm³ (unit assumed)

Row | SMILES | inhibition at 0.2 µg/mL [1] [%] | inhibition at 1 µg/mL [1] [%] | inhibition at 5 µg/mL [1] [%] | IC50 at 72 h [2] [µM] | IC50 at 72 h [3] [µM] | IC50 at 72 h [4] [µM] | Dead animal number [5, 7] | inhibition in vivo at 80 mg/kg [5, 7] [%] | d0 Wave ± SD (average bodyweight of nude mice) [5] | d21 Wave ± SD (average bodyweight of nude mice) [5, 7] | d21 Vave ± SD (average tumor volume) [5, 8] | d21 RTV ± SD (relative tumor volume) [5, 7] | Cytotoxicity to tumor cells (in words) [6] | d21 Vave ± SD (average tumor volume) [5, 7] | States of mice / toxicity signs (in words) [5, 7] | Bodyweight of mice after administration (in words) ([5]; mouse, in vivo)
1 | CCN(CC)CCC(=O)Nc1c(C)[nH]c(/C=C2\C(=O)Nc3ccc(Br)cc32)c1C [Compound 3, N-{5-[5-bromo-2-oxo-1,2-dihydro-indol-(3Z)-ylidenemethyl]-2,4-dimethyl-1H-pyrrol-3-yl}-3-(N,N-diethylamino)propionamide] | 93 | 100 | 100 | > 30 | 5.08 | > 30 | 0/6 | 86.4 | 19.3 ± 0.41 | 17.3 ± 0.56 | 120.6 ± 40.2 | 0.98 ± 0.36 | certain toxicity to some cells |  |  | 
2 | Cc1[nH]c(/C=C2\C(=O)Nc3ccc(F)cc32)c(C)c1NC(=O)CCN(C)C [Compound 6, N-{5-[5-fluoro-2-oxo-1,2-dihydro-indol-(3Z)-ylidenemethyl]-2,4-dimethyl-1H-pyrrol-3-yl}-3-(N,N-dimethylamino)propionamide] | 92 | 100 | 100 | > 30 | 8.08 | > 30 | 0/6 | 84.7 | 18.7 ± 0.38 | 20.4 ± 0.49 | 130.7 ± 37.4 | 1.10 ± 0.38 | certain toxicity to some cells |  |  | 
3 | Cc1[nH]c(/C=C2\C(=O)Nc3ccc(F)cc32)c(C)c1NC(=O)CN1CCOCC1 [Compound 19, N-{5-[5-fluoro-2-oxo-1,2-dihydro-indol-(3Z)-ylidenemethyl]-2,4-dimethyl-1H-pyrrol-3-yl}-2-(morpholin-4-yl)acetamide] | 89 | 100 | 100 | > 30 | > 30 | 7.6 |  |  |  |  |  |  | certain toxicity to some cells |  |  | 
4 | Cc1[nH]c(/C=C2\C(=O)Nc3ccc(F)cc32)c(C)c1NC(=O)CN(C)C [Compound 22, N-{5-[5-fluoro-2-oxo-1,2-dihydro-indol-(3Z)-ylidenemethyl]-2,4-dimethyl-1H-pyrrol-3-yl}-2-(N,N-dimethylamino)acetamide] | 90 | 100 | 100 | > 30 | > 30 | > 30 | 0/6 | 88.1 | 19.7 ± 0.38 | 20.1 ± 0.35 | 104.6 ± 43.6 | 0.86 ± 0.54 |  |  |  | 
5 | CCN(CC)CC(=O)Nc1c(C)[nH]c(/C=C2\C(=O)Nc3cc(C(F)(F)F)ccc32)c1C [Compound 24, N-{5-[6-trifluoromethyl-2-oxo-1,2-dihydro-indol-(3Z)-ylidenemethyl]-2,4-dimethyl-1H-pyrrol-3-yl}-2-(N,N-diethylamino)acetamide] | 98 | 100 | 100 | > 30 | 3.56 | 8.89 | 0/6 | 64.9 | 18.6 ± 0.36 | 17.9 ± 0.58 | 298.5 ± 55.8 | 2.52 ± 0.23 |  |  |  | 
6 | CCN(CC)CC(=O)Nc1c(C)[nH]c(/C=C2\C(=O)Nc3ccc([N+](=O)[O-])cc32)c1C [Compound 26, N-{5-[5-nitro-2-oxo-1,2-dihydro-indol-(3Z)-ylidenemethyl]-2,4-dimethyl-1H-pyrrol-3-yl}-2-(N,N-diethylamino)acetamide] | 93 | 100 | 100 | > 30 | 4.62 | > 30 | 0/6 | 64.8 | 19.3 ± 0.55 | 20.5 ± 0.35 |  | 2.53 ± 0.43 |  | 305.6 ± 46.7 |  | 
7 | CCN(CC)CC(=O)Nc1c(C)[nH]c(/C=C2\C(=O)Nc3ccc(NC(C)=O)cc32)c1C [Compound 28, N-{5-[5-acetylamino-2-oxo-1,2-dihydro-indol-(3Z)-ylidenemethyl]-2,4-dimethyl-1H-pyrrol-3-yl}-2-(N,N-diethylamino)acetamide] | 90 | 100 | 100 | > 30 | > 30 | > 30 | 0/6 | 77 | 18.8 ± 1.01 | 19.5 ± 0.86 | 204.3 ± 52.7 | 1.65 ± 0.62 |  |  |  | 
8 | CCN(CC)CCNC(=O)c1c(C)[nH]c(/C=C2\C(=O)Nc3ccc(F)cc32)c1C [Sunitinib, reference compound] | 95 | 100 | 100 | 11.5 | 2.03 | 1.93 | one tumor-bearing mouse died and 1/6 | 88.5 | 19.4 ± 0.44 |  | 129.6 ± 45.8 |  |  |  | yellowing skin and blood in excrement | decreased significantly
